# Data from PubChem BioAssay (NCI).
#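 Results reflect a 48-hour exposure of cells in 96-well plates to compound at five concentrations. Abbreviation: GI50, concentration required for 50% inhibition of growth. The concentration for full growth arrest is given as TGI.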
# What was measured:
# Assay in all cases: inhibition of tumour cell growth, NCI panel, 48 h
# SN12C renal = system: SN12C renal
# SK-MEL-28 melanoma = system: SK-MEL-28 melanoma
# SF-268 CNS = system: SF-268 CNS
# SR leukemia = system: SR leukemia
# EKVX NSCLC = system: EKVX NSCLC
# MCF7 breast = system: MCF7 breast
# UO-31 renal = system: UO-31 renal
# MDA-MB-435 = system: MDA-MB-435
# RPMI-8226 leukemia = system: RPMI-8226 leukemia
# M14 melanoma = system: M14 melanoma
# HOP-62 NSCLC = system: HOP-62 NSCLC
# MDA-MB-231 breast = system: MDA-MB-231 breast
# SF-539 CNS = system: SF-539 CNS
# NCI-H23 lung = system: NCI-H23 lung
# NCI-H460 lung = system: NCI-H460 lung
# TK-10 renal = system: TK-10 renal
# BT-549 breast = system: BT-549 breast
# SW-620 colon = system: SW-620 colon
# PC-3 prostate = system: PC-3 prostate
# RXF 393 renal = system: RXF 393 renal
# MALME-3M melanoma = system: MALME-3M melanoma
# SF-295 CNS = system: SF-295 CNS
# NCI/ADR-RES ovarian = system: NCI/ADR-RES ovarian
# SK-MEL-2 melanoma = system: SK-MEL-2 melanoma
# SK-MEL-5 melanoma = system: SK-MEL-5 melanoma
# HS 578T breast = system: HS 578T breast
smiles,measurement,setting,value
O=C1C(Cl)=C(Nc2cccc(O)c2)C(=O)N1Cc1ccc(Cl)cc1,GI50,SN12C renal,2.72 µM
same,TGI,SN12C renal,8.5 µM
same,GI50,SK-MEL-28 melanoma,4.93 µM
same,TGI,SK-MEL-28 melanoma,23 µM
same,GI50,SF-268 CNS,4.26 µM
same,TGI,SF-268 CNS,18.6 µM
same,GI50,SR leukemia,0.358 µM
same,TGI,SR leukemia,14.8 µM
same,GI50,EKVX NSCLC,13.6 µM
same,TGI,EKVX NSCLC,48.6 µM
same,GI50,MCF7 breast,2.75 µM
same,TGI,MCF7 breast,14.6 µM
same,GI50,UO-31 renal,10.3 µM
same,TGI,UO-31 renal,> 100 µM
same,GI50,MDA-MB-435,1.22 µM
same,TGI,MDA-MB-435,10.1 µM
same,GI50,RPMI-8226 leukemia,1.07 µM
same,TGI,RPMI-8226 leukemia,> 100 µM
same,GI50,M14 melanoma,4.43 µM
same,TGI,M14 melanoma,23.2 µM
same,GI50,HOP-62 NSCLC,4.55 µM
same,TGI,HOP-62 NSCLC,23 µM
same,GI50,MDA-MB-231 breast,1.1 µM
same,TGI,MDA-MB-231 breast,5.64 µM
same,GI50,SF-539 CNS,2.63 µM
same,TGI,SF-539 CNS,16.6 µM
same,GI50,NCI-H23 lung,2.17 µM
same,TGI,NCI-H23 lung,8.31 µM
same,GI50,NCI-H460 lung,2.87 µM
same,TGI,NCI-H460 lung,14 µM
same,GI50,TK-10 renal,5.86 µM
same,TGI,TK-10 renal,19.8 µM
same,GI50,BT-549 breast,2.54 µM
same,TGI,BT-549 breast,16.6 µM
same,GI50,SW-620 colon,2.56 µM
same,TGI,SW-620 colon,24.8 µM
same,GI50,PC-3 prostate,3.45 µM
same,TGI,PC-3 prostate,86.9 µM
same,GI50,RXF 393 renal,3.95 µM
same,TGI,RXF 393 renal,> 100 µM
same,GI50,MALME-3M melanoma,0.464 µM
same,TGI,MALME-3M melanoma,8.11 µM
same,GI50,SF-295 CNS,2.68 µM
same,TGI,SF-295 CNS,18.5 µM
same,GI50,NCI/ADR-RES ovarian,1.58 µM
same,TGI,NCI/ADR-RES ovarian,10.2 µM
same,GI50,SK-MEL-2 melanoma,1.83 µM
same,TGI,SK-MEL-2 melanoma,9.36 µM
same,GI50,SK-MEL-5 melanoma,5.69 µM
same,TGI,SK-MEL-5 melanoma,21.1 µM
same,GI50,HS 578T breast,8.51 µM
same,TGI,HS 578T breast,> 100 µM
